Experimental data from patent US20170050939A1, “SMALL MOLECULE INHIBITORS OF G PROTEIN COUPLED RECEPTOR 6 KINASE POLYPEPTIDES” (Mayo Foundation for Medical Education and Research, priority 2014, published 2017).
Where two headings read alike, the source gives them in different places.

Molecular target: T1, GRK6, recombinant full-length GST-tagged human protein (Homo sapiens, UniProt P43250)
T1 construct: GRK6, recombinant full-length GST-tagged human protein; GST
Test: GRK6 IC50 determination (8-point concentration-response)
Assay type: biochemical
Text: Two hundred forty compounds were further characterized by determining IC50 values in a GRK6 assay. This screen has been previously described in WO 2013/063458, which is incorporated by reference in its entirety herein.

[1] = 20 nM GRK6, 12 μM ATP (Km), 1 μM Peptide 216, 7 h incubation

T1 sequence (P43250 whole entry): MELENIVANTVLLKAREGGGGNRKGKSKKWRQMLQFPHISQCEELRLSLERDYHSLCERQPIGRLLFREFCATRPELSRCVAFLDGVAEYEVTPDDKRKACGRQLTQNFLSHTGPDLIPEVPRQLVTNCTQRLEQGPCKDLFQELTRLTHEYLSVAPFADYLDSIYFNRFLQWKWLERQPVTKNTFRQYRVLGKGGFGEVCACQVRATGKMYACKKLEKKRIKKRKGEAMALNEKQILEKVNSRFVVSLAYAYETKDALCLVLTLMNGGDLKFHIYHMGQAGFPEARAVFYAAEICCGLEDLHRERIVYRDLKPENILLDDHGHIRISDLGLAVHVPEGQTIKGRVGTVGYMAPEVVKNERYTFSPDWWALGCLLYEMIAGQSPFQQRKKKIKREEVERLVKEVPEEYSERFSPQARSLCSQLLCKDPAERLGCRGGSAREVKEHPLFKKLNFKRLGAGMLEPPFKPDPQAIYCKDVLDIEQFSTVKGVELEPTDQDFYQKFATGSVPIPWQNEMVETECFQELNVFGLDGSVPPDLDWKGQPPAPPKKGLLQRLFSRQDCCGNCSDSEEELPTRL

SMILES | IC50 | IC50 [1]
O=C(O)CSc1nnc(-c2cc(-c3cccc(O)c3)cc([N+](=O)[O-])c2)[nH]1 [Compound 24] | 212 nM | 
COc1ccc(NC(=O)c2cccc(-c3nnc(SCC(=O)O)[nH]3)c2)cc1 [Compound 170] | 21300 nM | 
O=C(O)CSc1nnc(-c2cccc(C(=O)Nc3ccc4c(c3)NC(=O)C4)c2)[nH]1 [Compound 105] | 3330 nM | 
Cn1ccc2cc(-c3cc(-c4nnc(SCC(=O)O)[nH]4)cc([N+](=O)[O-])c3)ccc21 [Compound 3] | 60 nM | 
O=C(O)CSc1nnc(-c2cc(OCc3ccccc3)cc([N+](=O)[O-])c2)[nH]1 [Compound 77] | 695 nM | 
O=C(O)CSc1nnc(-c2cc(-c3ccc4c(c3)OCO4)cc([N+](=O)[O-])c2)[nH]1 [Compound 30] | 275 nM | 
CSc1ccccc1-c1nnc(SCC(=O)O)[nH]1 [Compound 188] |  | 74100 nM
N#Cc1cccc(-c2cccc(-c3nnc(SCC(=O)O)[nH]3)c2)c1 [Compound 64] |  | 919 nM
CNS(=O)(=O)c1ccc(-c2cc(-c3nnc(SCC(=O)O)[nH]3)cc([N+](=O)[O-])c2)cc1 [Compound 62] | 824 nM | 
O=C(O)CSc1nnc(-c2ccc3ncccc3c2)[nH]1 [Compound 107] | 3390 nM | 
Cc1cc(-c2cc(-c3ccc4ccccc4c3)cc(-c3nnc(SCC(=O)O)[nH]3)c2)cnc1C [Compound 54] | 598 nM | 
O=C(O)CSc1nnc(-c2cc(-c3ccc4[nH]c(-c5ccccc5)cc4c3)cc([N+](=O)[O-])c2)[nH]1 [Compound 33, 2-((3-(3-nitro-5-(2-phenyl-1H-indol-5-yl)phenyl)-1H-1,2,4-triazol-5-yl)thio)acetic acid] | 302 nM | 
O=C(O)CSc1nnc(-c2cccc(F)c2F)[nH]1 [Compound 145] |  | 10700 nM
Cc1c(-c2cc(-c3ccc4ccccc4c3)cc(-c3nnc(SCC(=O)O)[nH]3)c2)cnn1C [Compound 38] | 376 nM | 
O=C(O)CSc1nnc(-c2cc(O)ccc2O)[nH]1 [Compound 123] |  | 6160 nM
O=C(O)CSc1nnc(-c2cccc(N3CCNCC3)c2)[nH]1 [Compound 171] |  | 21900 nM
Cc1ccc(O)c(-c2nnc(SCC(=O)O)[nH]2)c1 [Compound 99] |  | 2710 nM
COc1ccc(-c2nnc(SCC(=O)O)[nH]2)c(O)c1 [Compound 169] |  | 20900 nM
Cc1nn(C)cc1-c1cc(-c2ccc3ccccc3c2)cc(-c2nnc(SCC(=O)O)[nH]2)c1 [Compound 57] | 748 nM | 
C[S+]([O-])c1cccc(-c2nnc(SCC(=O)O)[nH]2)c1 (centres unmarked) [Compound 162] |  | 17500 nM
Cc1cccc(-c2nnc(SCC(=O)O)[nH]2)c1 [Compound 156] | 14400 nM | 
COc1ccncc1-c1cc(-c2ccc3ccccc3c2)cc(-c2nnc(SCC(=O)O)[nH]2)c1 [Compound 36] | 352 nM | 
O=C(O)CSc1nnc(-c2ccc(O)c(F)c2)[nH]1 [Compound 131] |  | 7300 nM
COc1cc(-c2nnc(SCC(=O)O)[nH]2)cc(C)c1O [Compound 103] | 3300 nM | 
COc1ncccc1-c1cc(-c2ccc3ccccc3c2)cc(-c2nnc(SCC(=O)O)[nH]2)c1 [Compound 68] | 1580 nM | 
O=C(O)CSc1nnc(-c2cc(-c3cccc4[nH]ncc34)cc([N+](=O)[O-])c2)[nH]1 [Compound 10] | 114 nM | 
Cc1onc(-c2ccccc2)c1-c1cc(-c2nnc(SCC(=O)O)[nH]2)cc([N+](=O)[O-])c1 [Compound 84] | 879 nM | 

SMILES | IC50 | IC50 [1]
Cc1ncc(-c2cc(-c3ccc4ccccc4c3)cc(-c3nnc(SCC(=O)O)[nH]3)c2)cn1 [Compound 44] | 437 nM | 
O=C(O)CS(=O)(=O)c1nnc(-c2ccccc2)[nH]1 [Compound 210] | > 100000 nM | 
O=C(O)CSc1nnc(-c2cc(-c3ccc4ccccc4c3)cc(C3C=NN=C3)c2)[nH]1 [Compound 28] | 262 nM | 
O=C(O)CSc1nnc(-c2cc(Br)cc([N+](=O)[O-])c2)n1CC(=O)O [Compound 120] | 5060 nM | 
COc1cncc(-c2cc(-c3ccc4ccccc4c3)cc(-c3nnc(SCC(=O)O)[nH]3)c2)c1 [Compound 46] | 461 nM | 
CC(C)CNC(=O)c1cc(-c2nnc(SCC(=O)O)[nH]2)cc([N+](=O)[O-])c1 [Compound 100] | 2750 nM | 
O=C(O)CSc1nnc(-c2cc(-c3cccc4[nH]ccc34)cc([N+](=O)[O-])c2)[nH]1 [Compound 8] | 101 nM | 
COc1cc(-c2nnc(SCC(=O)O)[nH]2)cc(OC)c1O [Compound 140] |  | 8830 nM
O=C(O)CSc1nnc(-c2cccc(C(=O)NCc3ccccc3)c2)[nH]1 [Compound 176] | 33300 nM | 
O=C(O)CSc1nnc(-c2cc(-c3cccc4c3oc3ccccc34)cc([N+](=O)[O-])c2)[nH]1 [Compound 237] | 438 nM | 
O=C(O)CSc1nnc(-c2cccc(F)c2)[nH]1 [Compound 115] |  | 4700 nM
COc1cc(Cl)cc(-c2cc(-c3nnc(SCC(=O)O)[nH]3)cc([N+](=O)[O-])c2)c1 [Compound 14] | 136 nM | 
O=C(O)CSc1nnc(-c2cccc(C(=O)Nc3ccc(Cl)cc3)c2)[nH]1 [Compound 148] | 11700 nM | 
O=C(O)CSc1nnc(-c2cc(-c3ccc4ccccc4c3)cc(-c3cnccc3F)c2)[nH]1 [Compound 58] | 751 nM | 
O=C(O)CSc1nnc(-c2cccc(-c3cccs3)c2)[nH]1 [Compound 81] |  | 757 nM
COc1ccc2cc(-c3nnc(SCC(=O)O)[nH]3)ccc2c1 [Compound 76] | 653 nM | 
CS(=O)(=O)Nc1ccc(-c2cc(-c3nnc(SCC(=O)O)[nH]3)cc([N+](=O)[O-])c2)cc1 [Compound 47] | 473 nM | 
CN(C)c1cccc(-c2cc(-c3nnc(SCC(=O)O)[nH]3)cc([N+](=O)[O-])c2)c1 [Compound 53] | 538 nM | 
Nc1cc(-c2ccc3ccccc3c2)cc(-c2nnc(SCC(=O)O)[nH]2)c1 [Compound 43] | 433 nM | 
O=C(O)CSc1nnc(-c2cc(-c3ccc4ccccc4c3)cc(-c3cnco3)c2)[nH]1 [Compound 13] | 122 nM | 
O=C(O)CSc1nnc(-c2cccc3cc[nH]c23)[nH]1 [Compound 153] | 13400 nM | 
O=C(O)CSc1nnc(-c2cc(-c3ccc4[nH]ncc4c3)cc([N+](=O)[O-])c2)[nH]1 [Compound 15] | 140 nM | 
O=C(O)CSc1nnc(-c2cccc(C(=O)Nc3ccccc3Cl)c2)[nH]1 [Compound 186] | 47800 nM | 
COc1cc(F)c(-c2nnc(SCC(=O)O)[nH]2)cc1OC [Compound 172] |  | 23700 nM
O=C(O)CSc1nnc(-c2cc(O)cc(O)c2)[nH]1 [Compound 127] |  | 6540 nM
CC(C)Oc1ccc(-c2nnc(SCC(=O)O)[nH]2)cc1[N+](=O)[O-] [Compound 104] | 3300 nM | 
Cc1cc(-c2cc(-c3nnc(SCC(=O)O)[nH]3)cc([N+](=O)[O-])c2)cc2ccn(C)c12 [Compound 231] | 150 nM | 

SMILES | IC50 | IC50 [1]
O=C(O)CSc1nnc(-c2cccc(C(=O)Nc3ccc4ncccc4c3)c2)[nH]1 [Compound 161] | 17500 nM | 
O=C(O)CSc1nnc(-c2cc(-c3cnn(CC(=O)O)c3)cc([N+](=O)[O-])c2)[nH]1 [Compound 95] | 2020 nM | 
CN1CCOc2cc(-c3cc(-c4nnc(SCC(=O)O)[nH]4)cc([N+](=O)[O-])c3)ccc21 [Compound 29] | 269 nM | 
O=C(O)CSc1nnc(-c2cc(-c3ccc4c(c3)[nH]c3ccccc34)cc([N+](=O)[O-])c2)[nH]1 [Compound 240] | 930 nM | 
COc1cc(-c2nnc(SCC(=O)O)[nH]2)ccc1OC(C)=O [Compound 144] |  | 9900 nM
COc1cccc(-c2nnc(SCC(=O)O)[nH]2)c1 [Compound 121] |  | 5850 nM
Cc1ccc2cc(-c3cc(-c4nnc(SCC(=O)O)[nH]4)cc([N+](=O)[O-])c3)ccc2c1 [Compound 238] | 442 nM | 
O=C(O)CSc1nnc(-c2cccc(-c3ccc4ccccc4c3)c2)[nH]1 [Compound 39] |  | 417 nM
Cc1c(-c2cc(-c3nnc(SCC(=O)O)[nH]3)cc([N+](=O)[O-])c2)ccc2[nH]c(C(N)=O)cc12 [Compound 235] | 358 nM | 
COc1cc(-c2nnc(SCC(=O)O)[nH]2)ccc1OC(=O)C1CC1 [Compound 139] |  | 8830 nM
Cc1c(-c2cc(-c3nnc(SCC(=O)O)[nH]3)cc([N+](=O)[O-])c2)ccc2[nH]c(C#N)cc12 [Compound 236] | 402 nM | 
O=C(O)CSc1nnc(-c2ccc(-n3ccnc3)cc2)[nH]1 [Compound 132] |  | 7360 nM
COc1ccc(-c2nnc(SCC(=O)O)[nH]2)cc1C [Compound 118] |  | 4990 nM
CC(=O)c1cccc(-c2nnc(SCC(=O)O)[nH]2)c1 [Compound 110] |  | 4110 nM
O=C(O)CSc1nnc(-c2cccc([N+](=O)[O-])c2)[nH]1 [Compound 92] |  | 1400 nM
Cn1ccc2cc(-c3cc(-c4nnc(SCC(=O)O)[nH]4)cc(C(F)(F)F)c3)ccc21 [Compound 239] | 729 nM | 
O=C(O)CSc1nnc(-c2cc(-c3cc[nH]n3)cc([N+](=O)[O-])c2)[nH]1 [Compound 78] | 742 nM | 
O=C(O)CSc1nnc(-c2cc(NC(=O)c3ccco3)cc(-c3ccc4ccccc4c3)c2)[nH]1 [Compound 59] | 768 nM | 
O=C(O)CSc1nnc(-c2cc(-c3ccc4[nH]cc(-c5ccccc5)c4c3)cc([N+](=O)[O-])c2)[nH]1 [Compound 4] | 67.4 nM | 
O=C(O)CSc1nnc(-c2cccc(C(F)(F)F)c2)[nH]1 [Compound 101] |  | 3020 nM
O=C(O)CSc1nnc(-c2cc(-c3ccc(-c4ccn[nH]4)cc3)cc([N+](=O)[O-])c2)[nH]1 [Compound 2] | 58.8 nM | 
COc1ccc(-c2nnc(SCC(=O)O)[nH]2)cc1O [Compound 152] |  | 13300 nM
CCn1cc(-c2cc(-c3nnc(SCC(=O)O)[nH]3)cc([N+](=O)[O-])c2)cn1 [Compound 73] | 342 nM | 
O=C(O)CSc1nnc(-c2cc(C(=O)Nc3ccccc3)cc([N+](=O)[O-])c2)[nH]1 [Compound 82] | 761 nM | 
O=C(O)CSc1nnc(-c2cccc(C(=O)Nc3cccc4[nH]ccc34)c2)[nH]1 [Compound 143] | 9820 nM | 
COc1ccc(Br)cc1-c1nnc(SCC(=O)O)[nH]1 [Compound 192] |  | 87000 nM
